Experimental data taken from ChEMBL document CHEMBL3525908, “Chronic doxorubicin cardiotoxicity modulates cardiac cytochrome P450-mediated arachidonic acid metabolism in rats” (Drug Metab Dispos, 2012).

Tests used:
Rattus norvegicus [1] = assay: Cardiotoxicity in Sprague-Dawley rat assessed as increase in sEH activity in heart cytosol administered as cumulative dose of 15 mg/kg, ip divided into 6 injections for 2 weeks followed by compound washout period of 14 days by RT-PCR analysis relative to control; assay type: toxicity, organism-based; parameters: dose 15 mg/kg, route intraperitoneal; settings: 336 h
H9c2 [2] = assay: Cytotoxicity against rat H9c2 cells assessed as reduction in BNP mRNA expression at 1 uM after 6 hrs in presence of HET0016; assay type: cell-based; settings: h9c2, 6 h
Rattus norvegicus [3] = assay: Toxicity in Sprague-Dawley rat assessed as CYP4A3 gene expression in kidney administered as cumulative dose of 15 mg/kg, ip divided into 6 injections for 2 weeks followed by compound washout period of 14 days by RT-PCR analysis relative to control; assay type: organism-based; parameters: dose 15 mg/kg, route intraperitoneal; settings: in vivo, 336 h
CYP4F5 = assay: Cardiotoxicity in Sprague-Dawley rat assessed as increase in CYP4F5 gene expression level administered as cumulative dose of 15 mg/kg, ip divided into 6 injections for 2 weeks followed by compound washout period of 14 days by RT-PCR analysis relative to control; assay type: toxicity, organism-based; parameters: dose 15 mg/kg, route intraperitoneal; settings: heart
Rattus norvegicus [4] = assay: Cardiotoxicity in Sprague-Dawley rat assessed as increase in CYP1B1 gene expression level administered as cumulative dose of 15 mg/kg, ip divided into 6 injections for 2 weeks followed by compound washout period of 14 days by RT-PCR analysis relative to control; assay type: toxicity, organism-based; parameters: dose 15 mg/kg, route intraperitoneal; settings: in vivo, 336 h
CYP1A2 = assay: Toxicity in Sprague-Dawley rat assessed as induction of CYP1A2 gene expression in liver administered as cumulative dose of 15 mg/kg, ip divided into 6 injections for 2 weeks followed by compound washout period of 14 days by RT-PCR analysis relative to control; assay type: organism-based; parameters: dose 15 mg/kg, route intraperitoneal
Rattus norvegicus [5] = assay: Toxicity in Sprague-Dawley rat assessed as CYP1A1 gene expression in kidney administered as cumulative dose of 15 mg/kg, ip divided into 6 injections for 2 weeks followed by compound washout period of 14 days by RT-PCR analysis relative to control; assay type: organism-based; parameters: dose 15 mg/kg, route intraperitoneal; settings: in vivo, 336 h
Rattus norvegicus [6] = assay: Cardiotoxicity in Sprague-Dawley rat assessed as increase in CYP2B1 gene expression level administered as cumulative dose of 15 mg/kg, ip divided into 6 injections for 2 weeks followed by compound washout period of 14 days by RT-PCR analysis relative to control; assay type: toxicity, organism-based; parameters: dose 15 mg/kg, route intraperitoneal; settings: in vivo, 336 h
CYP4F1 = assay: Cardiotoxicity in Sprague-Dawley rat assessed as increase in CYP4F1 gene expression level administered as cumulative dose of 15 mg/kg, ip divided into 6 injections for 2 weeks followed by compound washout period of 14 days by RT-PCR analysis relative to control; assay type: toxicity, organism-based; parameters: dose 15 mg/kg, route intraperitoneal; settings: heart
CYP1B1 [7] = assay: Toxicity in Sprague-Dawley rat assessed as induction of CYP1B1 gene expression in liver administered as cumulative dose of 15 mg/kg, ip divided into 6 injections for 2 weeks followed by compound washout period of 14 days by RT-PCR analysis relative to control; assay type: organism-based; parameters: dose 15 mg/kg, route intraperitoneal
CYP450 = assay: (§1) Induction of CYP450-mediated arachidonic acid metabolism in Sprague-Dawley rat heart microsomes assessed as 11,12-DHET formation administered as cumulative dose of 15 mg/kg, ip divided into 6 injections for 2 weeks followed by compound washout period of 14 days by LC-ESI-MS analysis relative to control; assay type: ADME, organism-based; parameters: dose 15 mg/kg, route intraperitoneal; settings: probe arachidonic acid
H9c2 [8] = assay: Cytotoxicity against rat H9c2 cells assessed as reduction in ANP mRNA expression at 1 uM after 6 hrs in presence of t-AUCB; assay type: cell-based; settings: h9c2, 6 h
Rattus norvegicus [9] = assay: Toxicity in Sprague-Dawley rat assessed as CYP4A1 gene expression in liver administered as cumulative dose of 15 mg/kg, ip divided into 6 injections for 2 weeks followed by compound washout period of 14 days by RT-PCR analysis relative to control; assay type: organism-based; parameters: dose 15 mg/kg, route intraperitoneal; settings: in vivo, 336 h
Rattus norvegicus [10] = assay: as §1, with “11,12-EET” for “11,12-DHET”; assay type: ADME, organism-based; parameters: dose 15 mg/kg, route intraperitoneal; settings: 336 h
Rattus norvegicus [11] = assay: Toxicity in Sprague-Dawley rat assessed as induction of IL-6 gene expression in kidney administered as cumulative dose of 15 mg/kg, ip divided into 6 injections for 2 weeks followed by compound washout period of 14 days by RT-PCR analysis relative to control; assay type: organism-based; parameters: dose 15 mg/kg, route intraperitoneal; settings: 336 h
CYP4A3 = assay: Cardiotoxicity in Sprague-Dawley rat assessed as increase in CYP4A3 gene expression level administered as cumulative dose of 15 mg/kg, ip divided into 6 injections for 2 weeks followed by compound washout period of 14 days by RT-PCR analysis relative to control; assay type: toxicity, organism-based; parameters: dose 15 mg/kg, route intraperitoneal; settings: heart
Rattus norvegicus [12] = assay: Toxicity in Sprague-Dawley rat assessed as induction of TNF-alpha gene expression in kidney administered as cumulative dose of 15 mg/kg, ip divided into 6 injections for 2 weeks followed by compound washout period of 14 days by RT-PCR analysis relative to control; assay type: organism-based; parameters: dose 15 mg/kg, route intraperitoneal; settings: 336 h
Rattus norvegicus [13] = assay: Cardiotoxicity in Sprague-Dawley rat assessed as increase in alpha-MHC gene expression level administered as cumulative dose of 15 mg/kg, ip divided into 6 injections for 2 weeks followed by compound washout period of 14 days by RT-PCR analysis relative to control; assay type: toxicity, organism-based; parameters: dose 15 mg/kg, route intraperitoneal; settings: in vivo, 336 h
Rattus norvegicus [14] = assay: Toxicity in Sprague-Dawley rat assessed as inhibition of CYP2B2 gene expression in kidney administered as cumulative dose of 15 mg/kg, ip divided into 6 injections for 2 weeks followed by compound washout period of 14 days by RT-PCR analysis relative to control; assay type: organism-based; parameters: dose 15 mg/kg, route intraperitoneal; settings: in vivo, 336 h
CYP1B1 [15] = assay: Toxicity in Sprague-Dawley rat assessed as induction of CYP1B1 gene expression in kidney administered as cumulative dose of 15 mg/kg, ip divided into 6 injections for 2 weeks followed by compound washout period of 14 days by RT-PCR analysis relative to control; assay type: organism-based; parameters: dose 15 mg/kg, route intraperitoneal
Rattus norvegicus [16] = assay: Toxicity in Sprague-Dawley rat assessed as CYP2C11 gene expression in kidney administered as cumulative dose of 15 mg/kg, ip divided into 6 injections for 2 weeks followed by compound washout period of 14 days by RT-PCR analysis relative to control; assay type: organism-based; parameters: dose 15 mg/kg, route intraperitoneal; settings: in vivo, 336 h
Rattus norvegicus [17] = assay: Toxicity in Sprague-Dawley rat assessed as CYP4F1 gene expression in liver administered as cumulative dose of 15 mg/kg, ip divided into 6 injections for 2 weeks followed by compound washout period of 14 days by RT-PCR analysis relative to control; assay type: organism-based; parameters: dose 15 mg/kg, route intraperitoneal; settings: in vivo, 336 h
Rattus norvegicus [18] = assay: Cardiotoxicity in Sprague-Dawley rat assessed as increase in CYP4F4 gene expression level administered as cumulative dose of 15 mg/kg, ip divided into 6 injections for 2 weeks followed by compound washout period of 14 days by RT-PCR analysis relative to control; assay type: toxicity, organism-based; parameters: dose 15 mg/kg, route intraperitoneal; settings: in vivo, 336 h
Rattus norvegicus [19] = assay: Toxicity in Sprague-Dawley rat assessed as sEH gene expression in kidney administered as cumulative dose of 15 mg/kg, ip divided into 6 injections for 2 weeks followed by compound washout period of 14 days by RT-PCR analysis; assay type: organism-based; parameters: dose 15 mg/kg, route intraperitoneal; settings: in vivo, 336 h
Rattus norvegicus [20] = assay: as §1, with “omega-1 hydroxylase-mediated” for “CYP450-mediated”, “19-HETE” for “11,12-DHET”; assay type: ADME, organism-based; parameters: dose 15 mg/kg, route intraperitoneal; settings: 336 h
Rattus norvegicus [21] = assay: Toxicity in Sprague-Dawley rat assessed as CYP4A3 gene expression in liver administered as cumulative dose of 15 mg/kg, ip divided into 6 injections for 2 weeks followed by compound washout period of 14 days by RT-PCR analysis relative to control; assay type: organism-based; parameters: dose 15 mg/kg, route intraperitoneal; settings: in vivo, 336 h
H9c2 [22] = assay: Cytotoxicity against rat H9c2 cells assessed as reduction in BNP mRNA expression at 1 uM after 6 hrs in presence of t-AUCB; assay type: cell-based; settings: h9c2, 6 h

fold induction at 336 h (CYP450): 1.9
Activity (Rattus norvegicus [10]): Active
Structure (SMILES): COc1cccc2c1C(=O)c1c(O)c3c(c(O)c1C2=O)C[C@@](O)(C(=O)CO)C[C@@H]3O[C@H]1C[C@H](N)[C@H](O)[C@H](C)O1 [DOXORUBICIN]
Ratio (Rattus norvegicus [1]): 1.3
Activity (H9c2 [2]): Toxic
Activity (Rattus norvegicus [3]): Non-toxic
fold induction at 336 h (CYP4F5): 2
Activity (Rattus norvegicus [4]): Non-toxic
fold induction at 336 h (CYP1A2): 1.9
Activity (Rattus norvegicus [5]): Non-toxic
Activity (Rattus norvegicus [6]): Non-toxic
fold induction at 336 h (CYP4F1): 1.6
fold induction at 336 h (CYP1B1 [7]): 2.5
Activity (H9c2 [8]): Toxic
Activity (Rattus norvegicus [9]): Non-toxic
fold induction at 15 mg/kg (Rattus norvegicus [11]): 4.7
fold induction at 336 h (CYP4A3): 2
fold induction at 15 mg/kg (Rattus norvegicus [12]): 2.9
Ratio (Rattus norvegicus [13]): 1.6
Ratio (Rattus norvegicus [14]): 0.74
fold induction at 336 h (CYP1B1 [15]): 1.8
Activity (Rattus norvegicus [16]): Non-toxic
Activity (Rattus norvegicus [17]): Non-toxic
Activity (Rattus norvegicus [18]): Non-toxic
Activity (Rattus norvegicus [19]): Non-toxic
Activity (Rattus norvegicus [20]): Non-toxic
Activity (Rattus norvegicus [21]): Non-toxic
Activity (H9c2 [22]): Toxic
